Converted amounts (≈) assume the structure as drawn. Blank lines part the entries; values can stand above or below the compound they belong to.
Columns and labels:
Experiment in all cases: ≥ marks a high value that may be exact or a test limit, other limits are often not marked, values filed in µg/mL are converted to µM
[1] = test system: Batrachochytrium dendrobatidis JEL-197
[2] = test system: Candida albicans ATCC 90028
[3] = test system: Escherichia coli ATCC 25726
[4] = test system: Staphylococcus aureus ATCC 25923
[5] = test system: Enterobacter cloacae NHTCC 53001
[6] = test system: Escherichia coli ATCC 25922
[7] = test system: Klebsiella pneumoniae KK3 9904
[8] = test system: Pseudomonas aeruginosa ATCC 27853
[9] = test system: Staphylococcus aureus NCTC 8325
Streptococcus mutans = test system: Streptococcus mutans
[10] = test system: Bacillus subtilis ATCC 6633
[11] = test system: Candida albicans ATCC 20032
Escherichia coli ML-35p = test system: Escherichia coli ML-35p
Escherichia coli = test system: Escherichia coli
[12] = test system: Pseudomonas aeruginosa 08031014
[13] = test system: Pseudomonas aeruginosa PAO1
[14] = test system: Staphylococcus aureus ATCC 43300
[15] = test system: Bacillus subtilis AB91021
[16] = test system: Bacillus thuringiensis AB92037
Escherichia coli AB94012 = test system: Escherichia coli AB94012
[17] = test system: Pseudomonas aeruginosa AB93066
[18] = test system: Staphylococcus aureus AB94004
[19] = test system: Staphylococcus aureus P1369
[20] = test system: Staphylococcus aureus P1374
[21] = test system: Staphylococcus aureus P1381
[22] = test system: Staphylococcus aureus P1383
[23] = test system: Staphylococcus aureus P1386
[24] = test system: Staphylococcus aureus P969
[25] = test system: Staphylococcus epidermidis P1111
[26] = test system: Staphylococcus epidermidis P1368
[27] = test system: Staphylococcus epidermidis P1389
Staphylococcus sp. = test system: Staphylococcus sp.
Bacillus megaterium Bm11 = test system: Bacillus megaterium Bm11
Escherichia coli D21 = test system: Escherichia coli D21
[28] = test system: Proteus vulgaris OX19 ATCC 6380
[29] = test system: Pseudomonas aeruginosa OT97
[30] = test system: Shigella flexneri ATCC 203
[31] = test system: Staphylococcus aureus Cowan 1
[32] = test system: Staphylococcus aureus JC-1

MIC [1]: 12.5 µM (≈ 46.3 µg/mL)
MIC [2]: ≥ 50 µM
MIC [3]: 25 µM (≈ 92.6 µg/mL)
MIC [4]: 12.5 µM (≈ 46.3 µg/mL)
SMILES: CC[C@H](C)[C@H](NC(=O)CN)C(=O)N[C@@H](Cc1ccccc1)C(=O)N[C@@H](CO)C(=O)N[C@@H](C)C(=O)N[C@@H](CC(C)C)C(=O)N[C@@H](C)C(=O)N[C@@H](C)C(=O)NCC(=O)N[C@H](C(=O)N[C@@H](CCCCN)C(=O)N[C@@H](CC(C)C)C(=O)N[C@@H](CC(C)C)C(=O)NCC(=O)N[C@@H](CC(N)=O)C(=O)N[C@H](C(=O)N[C@@H](CC(C)C)C(=O)N[C@@H](Cc1ccccc1)C(=O)N[C@@H](CCCCN)C(=O)N[C@@H](CCSC)C(=O)N[C@@H](C)C(=O)NCC(=O)N[C@@H](CCCCN)C(=O)N[C@@H](C)C(=O)NCC(=O)N[C@@H](C)C(=O)N[C@@H](CCC(=O)O)C(=O)N[C@@H](Cc1cnc[nH]1)C(=O)N[C@@H](CC(C)C)C(=O)N[C@@H](C)C(=O)N[C@H]1CSSC[C@@H](C(=O)O)NC(=O)[C@H](CCC(N)=O)NC(=O)[C@H](CC(N)=O)NC(=O)[C@H]([C@@H](C)O)NC(=O)[C@H](C)NC(=O)[C@H](CCCCN)NC1=O)[C@@H](C)O)C(C)C [GIFSALAAGVKLLGNTLFKMAGKAGAEHLACKATNQC]

MIC [2]: ≥ 100 µM
MIC [5]: 6 µM (≈ 23.1 µg/mL)
MIC [6]: 3 µM (≈ 11.5 µg/mL)
MIC [7]: 6 µM (≈ 23.1 µg/mL)
MIC [8]: 3 µM (≈ 11.5 µg/mL)
MIC [9]: 25 µM (≈ 96.1 µg/mL)
SMILES: CC[C@H](C)[C@H](NC(=O)[C@H](Cc1cnc[nH]1)NC(=O)[C@H](CCCCN)NC(=O)CNC(=O)[C@H](C)NC(=O)[C@@H](NC(=O)[C@H](CCCCN)NC(=O)[C@H](CC(C)C)NC(=O)[C@@H](NC(=O)CNC(=O)[C@H](CCCCN)NC(=O)[C@H](CC(C)C)NC(=O)[C@@H](NC(=O)[C@H](CO)NC(=O)[C@H](CCSC)NC(=O)[C@H](CC(C)C)NC(=O)CN)C(C)C)C(C)C)[C@@H](C)O)C(=O)N[C@@H](Cc1ccccc1)C(=O)N[C@@H](CCCCN)C(=O)N[C@@H](CC(N)=O)C(=O)N[C@H](C(=O)NCC(=O)NCC(=O)N[C@@H](CO)C(=O)N[C@@H](CC(C)C)C(=O)N[C@@H](CC(C)C)C(=O)N[C@@H](CC(=O)O)C(=O)N[C@@H](CCC(N)=O)C(=O)N[C@@H](C)C(=O)N[C@@H](CCCCN)C(=O)N[C@H]1CSSC[C@@H](C(=O)O)NC(=O)[C@H](CCC(N)=O)NC(=O)CNC(=O)[C@H]([C@@H](C)O)NC(=O)[C@H]([C@@H](C)CC)NC(=O)[C@H](CCCCN)NC1=O)C(C)C [GLMSVLKGVLKTAGKHIFKNVGGSLLDQAKCKITGQC]

MIC (Streptococcus mutans): ≥ 190 µM
SMILES: CC[C@H](C)[C@H](NC(=O)[C@H](CCC(=O)O)NC(=O)[C@H](CCCCN)NC(=O)[C@@H](NC(=O)[C@H](CC(N)=O)NC(=O)[C@H](CCC(=O)O)NC(=O)[C@H](C)NC(=O)[C@H](CC(C)C)NC(=O)[C@@H](N)CCCCN)C(C)C)C(=O)N[C@@H](CC(C)C)C(=O)N[C@@H](CCCN=C(N)N)C(=O)O [KLAENVKEILR]

MIC [10]: ≥ 39.4 µM
MIC [11]: 3.7 µM (≈ 9.38 µg/mL)
MIC [6]: 7.39 µM (≈ 18.8 µg/mL)
MIC (Escherichia coli ML-35p): 7.39 µM (≈ 18.8 µg/mL)
MIC (Escherichia coli): 20.9 µM (≈ 53 µg/mL)
MIC [12]: 14.8 µM (≈ 37.5 µg/mL)
MIC [8]: 3.7 µM (≈ 9.38 µg/mL)
MIC [13]: 3.7 µM (≈ 9.38 µg/mL)
MIC [4]: 3.7 µM (≈ 9.38 µg/mL)
MIC [14]: 3.7 µM (≈ 9.38 µg/mL)
SMILES: CC[C@H](C)[C@H](NC(=O)[C@H](CCCCN)NC(=O)[C@@H](NC(=O)[C@H](Cc1c[nH]c2ccccc12)NC(=O)[C@H](CS)NC(=O)[C@H](CCCNC(=N)N)NC(=O)[C@@H]1CCCN1C(=O)[C@H](CCCNC(=N)N)NC(=O)[C@H](CC(C)C)NC(=O)[C@H](CO)NC(=O)[C@@H](N)CCCCN)[C@@H](C)CC)C(=O)N[C@@H](CCCCN)C(=O)N[C@@H](Cc1ccccc1)C(=O)N[C@@H](CCCNC(=N)N)C(=O)N[C@@H](CS)C(=O)N[C@@H](CCCCN)C(=O)N[C@@H](CO)C(=O)N[C@@H](CC(C)C)C(=O)N[C@@H](CCCCN)C(=O)N[C@@H](Cc1ccccc1)C(=O)O [KSLRPRCWIKIKFRCKSLKF]

MIC [15]: 12.3 µM (≈ 25 µg/mL)
MIC [16]: 12.3 µM (≈ 25 µg/mL)
MIC (Escherichia coli AB94012): 6.15 µM (≈ 12.5 µg/mL)
MIC [17]: ≥ 49.2 µM
MIC [18]: 2.46 µM (≈ 5 µg/mL)
MIC [19]: 3.94 µM (≈ 8 µg/mL)
MIC [20]: 3.94 µM (≈ 8 µg/mL)
MIC [21]: 9.84 µM (≈ 20 µg/mL)
MIC [22]: 4.92 µM (≈ 10 µg/mL)
MIC [23]: 12.3 µM (≈ 25 µg/mL)
MIC [24]: 19.7 µM (≈ 40 µg/mL)
MIC [25]: 9.84 µM (≈ 20 µg/mL)
MIC [26]: 3.94 µM (≈ 8 µg/mL)
MIC [27]: 3.94 µM (≈ 8 µg/mL)
MIC (Staphylococcus sp.): 2.46 µM (≈ 5 µg/mL)
SMILES: CC[C@H](C)[C@H](NC(=O)[C@H](CC(C)C)NC(=O)[C@H](CO)NC(=O)[C@H](CCCCN)NC(=O)[C@@H](NC(=O)[C@H](CC(C)C)NC(=O)[C@H](CCCN=C(N)N)NC(=O)[C@H](Cc1ccccc1)NC(=O)[C@@H](N)CC(C)C)[C@@H](C)CC)C(=O)N[C@@H](CCCCN)C(=O)N[C@@H](CCCN=C(N)N)C(=O)N[C@@H](CC(C)C)C(=O)N[C@H](C(=O)N[C@@H](CO)C(=O)N[C@@H](C)C(=O)N[C@@H](Cc1ccccc1)C(=O)N[C@@H](CCCCN)C(N)=O)C(C)C [LFRLIKSLIKRLVSAFK]

MIC (Bacillus megaterium Bm11): ≥ 4800 µM
MIC [10]: ≥ 6000 µM
MIC (Escherichia coli D21): ≥ 6000 µM
MIC [28]: ≥ 6000 µM
MIC [29]: ≥ 6000 µM
MIC [30]: ≥ 4800 µM
MIC [31]: ≥ 6000 µM
MIC [32]: ≥ 3200 µM
SMILES: CC[C@H](C)[C@H](NC(=O)[C@H](CCCCN)NC(=O)[C@@H](NC(=O)[C@@H](NC(=O)[C@H](CCC(N)=O)NC(=O)CNC(=O)[C@H](Cc1cnc[nH]1)NC(=O)[C@H](CCC(N)=O)NC(=O)[C@H](CC(N)=O)NC(=O)[C@H](CCC(N)=O)NC(=O)[C@@H](N)C(C)C)C(C)C)C(C)C)C(=O)N[C@@H](Cc1ccccc1)C(=O)N[C@@H](Cc1cnc[nH]1)C(=O)N[C@@H](Cc1cnc[nH]1)C(=O)O [VQNQHGQVVKIFHH]
